Data taken from ChEMBL document CHEMBL1201862, “PubChem BioAssay data set” (2004).
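Dose response: 5 concentrations. Exposure: 48 h. Format: 96-well plates. Endpoint: linear interpolation; highest concentration if not reached. Here, GI50 denotes the concentration required for 50% inhibition of growth.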 Active and inactive are the calls of the source. Cut-off read from the data, not from the text of the source: active = GI50 up to about 1.1 µM and inactive = higher.

Legend:
Experiment in all cases: DTP human tumour cell line panel, 48 h
COLO 205 = test system: COLO 205
EKVX = test system: EKVX
HCT-15 = test system: HCT-15
Hs-578T = test system: Hs-578T
MDA-N = test system: MDA-N
MOLT-4 = test system: MOLT-4
Malme-3M = test system: Malme-3M
NCI-H226 = test system: NCI-H226
NCI-H460 = test system: NCI-H460
NCI-H522 = test system: NCI-H522
OVCAR-4 = test system: OVCAR-4
OVCAR-5 = test system: OVCAR-5
RPMI-8226 = test system: RPMI-8226
SF-268 = test system: SF-268
SF-539 = test system: SF-539
SK-MEL-2 = test system: SK-MEL-2
UACC-257 = test system: UACC-257
UACC-62 = test system: UACC-62
UO-31 = test system: UO-31
HCC 2998 = test system: HCC 2998

SMILES | GI50 (COLO 205) | GI50 (EKVX) | GI50 (HCT-15) | GI50 (Hs-578T) | GI50 (MDA-N) | GI50 (MOLT-4) | GI50 (Malme-3M) | GI50 (NCI-H226) | GI50 (NCI-H460) | GI50 (NCI-H522) | GI50 (OVCAR-4) | GI50 (OVCAR-5) | GI50 (RPMI-8226) | GI50 (SF-268) | GI50 (SF-539) | GI50 (SK-MEL-2) | GI50 (UACC-257) | GI50 (UACC-62) | GI50 (UO-31) | GI50 (HCC 2998)
CC1N=C(c2ccccc2)OC1=O (centres undefined) | > 100 µM (inactive) | > 100 µM (inactive) | > 100 µM | > 100 µM (inactive) | > 100 µM (inactive) | > 100 µM (inactive) | > 100 µM (inactive) | > 100 µM (inactive) | > 100 µM (inactive) | > 100 µM (inactive) | > 100 µM (inactive) | > 100 µM (inactive) | > 100 µM (inactive) | > 100 µM (inactive) | > 100 µM (inactive) | > 100 µM (inactive) | > 100 µM (inactive) | > 100 µM (inactive) | > 100 µM (inactive) | 
N/C(=N\c1ccc(Cl)cc1)NS(=O)(=O)c1ccc(S(=O)(=O)c2ccccc2)s1 | 18.4 µM (inactive) | 12.9 µM (inactive) | 17.5 µM | 24 µM (inactive) | 18.5 µM (inactive) | 18 µM (inactive) | 20 µM (inactive) | 26.4 µM (inactive) | 17.3 µM (inactive) | 14.5 µM (inactive) | 17.5 µM (inactive) | 31.9 µM (inactive) | 16.6 µM (inactive) | 19.4 µM (inactive) | 22.7 µM (inactive) | 14.1 µM (inactive) | 14.8 µM (inactive) | 11.3 µM (inactive) | 16.6 µM (inactive) | 
O=C1C[C@H](CCC(=O)OCc2ccccc2)NC(=O)C[C@H](CCC(=O)OCc2ccccc2)NC(=O)C[C@H](CCC(=O)OCc2ccccc2)N1 | > 100 µM (inactive) | > 100 µM (inactive) | > 100 µM | 5.24 µM (inactive) | > 100 µM (inactive) | > 100 µM (inactive) | > 100 µM (inactive) | > 100 µM (inactive) | > 100 µM (inactive) | > 100 µM (inactive) | > 100 µM (inactive) | > 100 µM (inactive) | > 100 µM (inactive) |  | 5.64 µM (inactive) | 17.1 µM (inactive) | > 100 µM (inactive) | 88.9 µM (inactive) | > 100 µM (inactive) | > 100 µM (inactive)
CN(C)CCNc1ncnc2[nH]c(-c3ccc4ccccc4c3)nc12 | > 100 µM (inactive) | > 100 µM (inactive) | > 100 µM | > 100 µM (inactive) | > 100 µM (inactive) | > 100 µM (inactive) | > 100 µM (inactive) | > 100 µM (inactive) | > 100 µM (inactive) | > 100 µM (inactive) | > 100 µM (inactive) | > 100 µM (inactive) | > 100 µM (inactive) | > 100 µM (inactive) |  | > 100 µM (inactive) | > 100 µM (inactive) | > 100 µM (inactive) | > 100 µM (inactive) | > 100 µM (inactive)
O=C(Nc1ccc(Cl)cc1)NS(=O)(=O)c1coc2cc(F)ccc2c1=O | > 100 µM (inactive) | > 100 µM (inactive) | 19.9 µM | > 100 µM (inactive) | > 100 µM (inactive) | > 100 µM (inactive) | > 100 µM (inactive) | > 100 µM (inactive) | > 100 µM (inactive) | 67.9 µM (inactive) | > 100 µM (inactive) | > 100 µM (inactive) |  | > 100 µM (inactive) | 87.7 µM (inactive) | 52.6 µM (inactive) | > 100 µM (inactive) | 26.2 µM (inactive) | 86.3 µM (inactive) | 80.4 µM (inactive)
Cc1cn(C2C=CC(COP(=O)(OCC3=CC(=O)c4ccccc4C3=O)N(C)CCCCCl)O2)c(=O)[nH]c1=O (centres undefined) | 3.23 µM (inactive) |  | 8.51 µM | 3.9 µM (inactive) | 2.21 µM (inactive) | 0.15 µM (active) | 0.363 µM (active) | 10.3 µM (inactive) | 2.49 µM (inactive) | 14.7 µM (inactive) | 11.1 µM (inactive) | 12.1 µM (inactive) | 5.05 µM (inactive) | 12.1 µM (inactive) | 13.1 µM (inactive) | 13.2 µM (inactive) | 3.25 µM (inactive) | 3.75 µM (inactive) | 12.8 µM (inactive) | 1.24 µM (inactive)
Nc1ccc(Oc2ccc(C34CC5CC(C3)CC(c3ccc(Oc6ccc(N)cc6)cc3)(C5)C4)cc2)cc1 | 14.5 µM (inactive) | 25.4 µM (inactive) | 10.8 µM | 20.2 µM (inactive) | 8.71 µM (inactive) |  | 11.6 µM (inactive) | 26.5 µM (inactive) | 10.7 µM (inactive) | 11.9 µM (inactive) | 8.79 µM (inactive) | 18.6 µM (inactive) | 4.14 µM (inactive) | 9.66 µM (inactive) | 13.7 µM (inactive) | 13.1 µM (inactive) | 9.86 µM (inactive) | 10.4 µM (inactive) | 33 µM (inactive) | 4.9 µM (inactive)
c1ccc(-c2cc(-c3cc(-c4ccccc4)n(-c4ccccc4)n3)nn2-c2ccccc2)cc1 | > 100 µM (inactive) | > 100 µM (inactive) | > 100 µM | 52 µM (inactive) | > 100 µM (inactive) | > 100 µM (inactive) | > 100 µM (inactive) | > 100 µM (inactive) | > 100 µM (inactive) | > 100 µM (inactive) | 94.8 µM (inactive) | > 100 µM (inactive) |  | > 100 µM (inactive) | > 100 µM (inactive) | > 100 µM (inactive) | > 100 µM (inactive) | > 100 µM (inactive) | > 100 µM (inactive) | > 100 µM (inactive)
COc1ccc2c(c1)c1c(n2CCN2CCOCC2)-c2cccc(OC)c2CC1 | 15.2 µM (inactive) |  | 29.5 µM | 35 µM (inactive) | 33.4 µM (inactive) | 23.2 µM (inactive) | 16.9 µM (inactive) | 24.4 µM (inactive) | 38.9 µM (inactive) | 20.2 µM (inactive) | > 100 µM (inactive) | 55.2 µM (inactive) | 16.9 µM (inactive) | > 100 µM (inactive) | 33.3 µM (inactive) | 22.3 µM (inactive) | 58.5 µM (inactive) | 29.6 µM (inactive) | 18.6 µM (inactive) | 26.6 µM (inactive)
c1c[nH]c(CN2CCN(Cc3ncc[nH]3)CC2)n1 | > 100 µM (inactive) | 52.2 µM (inactive) | > 100 µM | > 100 µM (inactive) | > 100 µM (inactive) | > 100 µM (inactive) | > 100 µM (inactive) | > 100 µM (inactive) | > 100 µM (inactive) | > 100 µM (inactive) | > 100 µM (inactive) | > 100 µM (inactive) | > 100 µM (inactive) | > 100 µM (inactive) | > 100 µM (inactive) | > 100 µM (inactive) | > 100 µM (inactive) | > 100 µM (inactive) | > 100 µM (inactive) | 
CC(=O)ONC(C(=O)C(C)(C)C)C(=O)C(C)(C)C | > 100 µM (inactive) | > 100 µM (inactive) | > 100 µM | > 100 µM (inactive) | > 100 µM (inactive) | > 100 µM (inactive) | > 100 µM (inactive) | > 100 µM (inactive) | > 100 µM (inactive) | > 100 µM (inactive) | > 100 µM (inactive) | > 100 µM (inactive) | > 100 µM (inactive) | > 100 µM (inactive) | > 100 µM (inactive) | > 100 µM (inactive) | > 100 µM (inactive) |  | > 100 µM (inactive) | > 100 µM (inactive)
